The record followed here is publication PMC6501426 (Clinical Epigenetics, 2019).

One test has as its target T1, human DNMT1 (Homo sapiens, UniProt P26358).
T1 construct: His; made in house
The test can be described thus: DNMT1 assay (radiolabeled SAM, Flashplate). In kind it is biochemical. The method, then:
His-DNMT1 (182 kDa, human) was cloned, expressed, and purified as described by Lee et al.. The DNMT1 assay was performed according to Gros et al.. Briefly, the DNMT1 enzymatic assay is based on the use of radiolabeled SAM, and the methylation occurs in homogeneous phase in 384-well microplates. The reaction is performed with DNMT1 at the final concentration of 90 nM in a total volume of 10 μL including also the chemical compound to be tested at the desired concentration, 1.25 μM of SAM//[methyl-^3H] SAM (3TBq/mmol) mix in a ratio of 3:1 and 0.3 μM of biotinylated DNA duplex. DNMT1, as “maintenance” methyltransferase, requires hemimethylated DNA for the reaction. After 2 h incubation at 37 °C, 8 μL of the reaction’s solution is transferred into a streptavidin 96-well scintillant coated Flashplate^TM containing 190 μL of […] in 50 mM Tris-HCl (pH 7.4). The Flashplate^TM is then agitated at room temperature for 1 h and washed. The plate is read with TopCount (PerkinElmer, Villebon-sur-Yvette, France). The greater the DNMT1 inhibition, the lower will be the scintillation signal correlated to the incorporation of the tritiated methyl groups. In this assay, the negative and positive controls were defined as wells without enzyme and wells without any compound but just DMSO, respectively.

The subject of a further test is KG-1 cells. The test can be described thus: Antiproliferative activity in KG-1 cells (Table S1). In kind it is cell-based. The note with it: Homo sapiens, read-out: % inhibition of proliferation, KG-1 cells. Here is the method: To determine the antiproliferative activity of MC3353 in KG-1 cells, the cells were seeded at day 0 in a 96-well plate and treated with test compound solutions at a dose range spanning from 3.2 × 10^−9 to 1 × 10^−5 M at days 1, 2, and 3. On day 4, cell viability was assessed using the ATPLite kit (PerkinElmer, Villebon-sur-Yvette, France).
Afterwards, MC3353 was tested in KG-1 leukemia cells for its ability to reactivate gene expression in a stably integrated luciferase reporter construction under the control of a CMV promoter inhibited by DNA methylation (CMV-luc assay). After 5 or 24 h of incubation in the presence of drugs at the indicated concentrations, the luciferase signal was measured and normalized to the value of the non-treated cells (Table 2). Since the CMV-luc assay is highly compromised when the tested compounds induce cell death, the cytotoxicity of MC3353 against KG-1 cells at 5 and 24 h was determined in parallel. MC3353 was highly toxic for KG-1 cells after 24 h of treatment starting from a concentration of 1 μM (Additional file 1: Table S1 and indicated in stars in Table 2).

In test [1] the test system is MMP2 protein in PC-3 cells. The test can be described thus: Western blot of MMP2 in PC-3. The format is cell-based, human. The conditions noted are these: 1 μM, 24 h. From the text:
Cells were lysed in Laemmli buffer; subsequently, the proteins were resolved by sodium dodecyl sulfate-polyacrylamide gel electrophoresis and transferred to a 0.45-μm nitrocellulose membrane (Bio-Rad Laboratories, Hercules, CA). The following primary antibodies were used for immunoblotting: α-E-cadherin (BD Transduction Laboratories, Franklin Lakes, NJ), α-MMP2 (Abcam), α-DNMT3a (Santa Cruz Biotechnologies, Dallas, TX), and α-GAPDH (Millipore Corp., Bedford, MA), used as a loading control. The immune complexes were detected with horseradish peroxidase-conjugated species-specific secondary antiserum (Bio-Rad Laboratories, Milan, Italy) then by enhanced chemiluminescence reaction (Bio-Rad Laboratories, Milan, Italy). Densitometric analysis of protein expression was performed by using the Fiji ImageJ image processing package.
Fig. 8 Effects of MC3353 on E-cadherin and MMP2 protein expression levels in PC-3 cancer cells. Cells were treated with vehicle (DMSO) used as control (CTR) or MC3353 for 24 h. a E-cadherin and MMP2 protein detection by western blot. GAPDH was used as a loading control. Blots are representative of three independent experiments. b Densitometric analysis of E-cadherin and MMP2 protein expression. Significance is represented as *p < 0.05 related to the control groups. Data were obtained from three independent experiments and expressed as mean ± SEM
(In general: Immunoblotting shows a protein as a band on a membrane.)

A further test addresses T2, Abl kinase (h) (Homo sapiens, UniProt P00519).
T2 construct: purchased Eurofins Cerep
Put plainly: Kinase panel (ExpresS Diversity Kinase Profile, Cerep). The format is biochemical. The note with it: read-out: % inhibition at 10 µM by MC3353, Abl kinase (h), ATP 10 μM. The method, then:
The test compound, reference compound or water (control) were mixed with the enzyme (for the exact amount see table below) in the appropriate buffer. Thereafter, the reaction was initiated by adding the required amount of the appropriate substrate and of ATP, and the mixture is incubated at room temperature (variable reaction time, see table below). For control basal measurements, the enzyme was omitted from the reaction mixture. Following incubation, the reaction was stopped by adding 13 mM EDTA. After 5 min, the proper antibody labelled with europium chelate was added. After 60 more min, the fluorescence transfer was measured at λex=337 nm, λem=620 nm and λem=665 nm using a microplate reader (Envision, Perkin Elmer). The enzyme activity was determined by dividing the signal measured at 665 nm by that measured at 620 nm (ratio). The results are expressed as a percent inhibition of the control enzyme activity.

Read-outs that look alike come from different tables or passages of the source.

T1 sequence (P26358 whole entry): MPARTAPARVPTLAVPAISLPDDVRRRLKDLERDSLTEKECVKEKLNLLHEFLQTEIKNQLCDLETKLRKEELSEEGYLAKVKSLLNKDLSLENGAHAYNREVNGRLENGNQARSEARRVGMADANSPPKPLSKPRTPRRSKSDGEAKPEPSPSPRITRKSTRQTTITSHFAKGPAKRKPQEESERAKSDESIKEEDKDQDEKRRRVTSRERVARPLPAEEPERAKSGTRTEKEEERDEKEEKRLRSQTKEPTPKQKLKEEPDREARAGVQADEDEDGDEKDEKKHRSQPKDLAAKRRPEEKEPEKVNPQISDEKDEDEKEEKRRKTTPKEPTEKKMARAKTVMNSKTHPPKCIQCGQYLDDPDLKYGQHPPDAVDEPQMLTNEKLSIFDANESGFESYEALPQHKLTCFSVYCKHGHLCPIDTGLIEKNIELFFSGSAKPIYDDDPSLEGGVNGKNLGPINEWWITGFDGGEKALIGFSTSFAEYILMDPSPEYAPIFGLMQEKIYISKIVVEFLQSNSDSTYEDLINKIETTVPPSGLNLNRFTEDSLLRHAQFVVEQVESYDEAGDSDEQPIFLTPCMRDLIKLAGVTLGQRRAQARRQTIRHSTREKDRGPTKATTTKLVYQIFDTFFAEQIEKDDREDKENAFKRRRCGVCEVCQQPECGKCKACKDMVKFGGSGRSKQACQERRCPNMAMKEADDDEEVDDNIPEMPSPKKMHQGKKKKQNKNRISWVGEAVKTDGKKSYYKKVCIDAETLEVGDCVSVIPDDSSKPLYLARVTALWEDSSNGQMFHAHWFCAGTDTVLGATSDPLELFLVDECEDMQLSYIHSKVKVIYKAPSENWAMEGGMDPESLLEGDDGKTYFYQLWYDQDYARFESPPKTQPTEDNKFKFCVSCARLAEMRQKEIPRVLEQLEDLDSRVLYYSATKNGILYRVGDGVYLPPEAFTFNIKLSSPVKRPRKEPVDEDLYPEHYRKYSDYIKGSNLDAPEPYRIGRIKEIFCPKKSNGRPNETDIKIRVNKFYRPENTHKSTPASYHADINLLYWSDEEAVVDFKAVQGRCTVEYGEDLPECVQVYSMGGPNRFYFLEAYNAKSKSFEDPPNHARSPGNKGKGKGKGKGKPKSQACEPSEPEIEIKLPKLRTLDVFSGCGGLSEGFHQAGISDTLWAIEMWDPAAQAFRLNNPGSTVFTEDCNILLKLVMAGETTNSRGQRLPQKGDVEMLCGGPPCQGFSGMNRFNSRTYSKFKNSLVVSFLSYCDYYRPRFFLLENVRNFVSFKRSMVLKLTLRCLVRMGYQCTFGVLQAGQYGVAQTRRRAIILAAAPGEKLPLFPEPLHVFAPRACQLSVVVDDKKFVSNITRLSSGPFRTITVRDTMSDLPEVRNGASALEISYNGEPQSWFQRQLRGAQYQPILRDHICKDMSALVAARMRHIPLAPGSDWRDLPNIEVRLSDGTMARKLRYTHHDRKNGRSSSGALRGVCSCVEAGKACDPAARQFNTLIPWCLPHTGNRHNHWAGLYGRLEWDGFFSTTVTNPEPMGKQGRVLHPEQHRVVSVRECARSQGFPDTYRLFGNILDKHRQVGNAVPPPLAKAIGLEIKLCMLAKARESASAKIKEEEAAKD
T2 sequence (P00519 whole entry): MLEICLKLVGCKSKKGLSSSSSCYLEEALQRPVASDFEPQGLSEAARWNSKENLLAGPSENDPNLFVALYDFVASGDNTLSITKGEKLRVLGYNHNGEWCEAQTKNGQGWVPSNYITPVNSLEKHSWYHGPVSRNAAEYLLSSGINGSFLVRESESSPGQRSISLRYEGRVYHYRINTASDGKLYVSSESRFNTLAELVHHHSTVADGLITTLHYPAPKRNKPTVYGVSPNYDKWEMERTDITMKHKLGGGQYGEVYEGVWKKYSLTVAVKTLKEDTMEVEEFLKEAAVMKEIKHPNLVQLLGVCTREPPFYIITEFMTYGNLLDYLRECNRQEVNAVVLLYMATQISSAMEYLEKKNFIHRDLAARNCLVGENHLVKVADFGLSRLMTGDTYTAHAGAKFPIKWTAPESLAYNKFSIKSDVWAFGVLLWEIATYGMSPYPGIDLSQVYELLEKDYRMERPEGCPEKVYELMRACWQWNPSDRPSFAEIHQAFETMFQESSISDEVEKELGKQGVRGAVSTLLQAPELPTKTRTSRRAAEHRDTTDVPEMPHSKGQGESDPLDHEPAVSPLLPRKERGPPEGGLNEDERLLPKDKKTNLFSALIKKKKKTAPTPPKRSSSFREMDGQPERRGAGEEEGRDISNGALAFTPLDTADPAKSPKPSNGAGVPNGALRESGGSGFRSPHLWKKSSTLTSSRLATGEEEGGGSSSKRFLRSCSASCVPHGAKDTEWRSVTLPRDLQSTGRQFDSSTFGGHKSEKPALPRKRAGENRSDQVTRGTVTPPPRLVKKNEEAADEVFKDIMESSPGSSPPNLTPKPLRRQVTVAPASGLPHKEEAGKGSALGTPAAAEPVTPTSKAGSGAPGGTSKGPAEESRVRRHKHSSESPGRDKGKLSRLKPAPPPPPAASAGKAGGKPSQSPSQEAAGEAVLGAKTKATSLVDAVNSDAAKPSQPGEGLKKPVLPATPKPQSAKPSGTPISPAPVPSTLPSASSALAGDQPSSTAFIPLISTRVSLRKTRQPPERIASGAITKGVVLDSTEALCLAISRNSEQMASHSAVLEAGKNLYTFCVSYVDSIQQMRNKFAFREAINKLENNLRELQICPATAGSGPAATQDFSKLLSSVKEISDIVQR

As usually defined, the EC50 is the midpoint of the concentration-response curve. As to `O=C(Nc1ccc(NC(=O)c2ccc(Nc3ccnc4ccccc34)cc2)cc1)OCc1ccccc1` [MC3353, Benzyl (4-(4-(quinolin-4-ylamino)benzamido)phenyl)carbamate], the concentration for a half-maximal effect (EC50) at human DNMT1 (radioactivity assay, at least two independent experiments, read-out: EC50 ± SD, hDNMT1) stood at 67 ± 4 µM. In addition, on human DNMT1 (ratio of EC50 values), the “fold less effective than SGI-1027 against hDNMT1” value came out at 5.6 fold and the “fold more potent than RG-108 against hDNMT1” value stood at 6 fold. For the same compound, in the test on KG-1 cells (5h), the inhibition at 0.1 µM was 5.5%, the inhibition at 1 µM came to 17.7%, the inhibition at 5 µM amounted to 81.2% and the inhibition at 10 µM came to 96.8%. Moreover, in the test on KG-1 cells (24h), the inhibition at 0.1 µM turned out to be 2.9%, the inhibition at 1 µM amounted to 98.7%, the inhibition at 5 µM worked out at 100% and the inhibition at 10 µM came to 100%. Moreover, in test [1], the “MMP2 protein level (western blot, densitometry), PC-3” value was “reduced MMP2 protein levels”. Also, on Abl kinase (h), the inhibition at 10 µM stood at 0%.
